Test systems include HOP-62 NSCLC; OVCAR-8 ovarian; M14 melanoma; NCI-H23 lung; OVCAR-3 ovarian; SK-OV-3 ovarian; UO-31 renal; HL-60(TB) leukemia; SR leukemia; NCI/ADR-RES ovarian.
Experiment in all cases: DTP human tumour cell line panel, 48 h

The source of these data is PubChem BioAssay (NCI).

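In this assay, cells in 96-well plates receive the compound at five concentrations for 48 hours. Endpoints are linearly interpolated between the surrounding concentrations. Here, GI50 denotes the concentration required for 50% inhibition of growth. TGI is the concentration that stops growth completely.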 Where only a bound is given, the exact number is not on record here.

As to `C=C1[C@@H](O)C[C@H]2C(C)(C)C[C@H](Cl)C[C@]2(C)[C@H]1C[C@H](O)[C@H]1CC(=O)NC1=O`, the GI50 in the assay with HOP-62 NSCLC is 11.6 nM; in the assay with OVCAR-8 ovarian, 15.5 nM; in the assay with M14 melanoma, below 11.9 nM; in the assay on NCI-H23 lung, 19.3 nM; in the assay on OVCAR-3 ovarian it was 19.1 nM; in the assay with SK-OV-3 ovarian it was 13.5 nM. Also, the GI50 in the assay with UO-31 renal was 18.5 nM; with HL-60(TB) leukemia it was below 10.7 nM; in the assay with SR leukemia, 14.2 nM; in the assay with NCI/ADR-RES ovarian, below 44.7 nM. Also, the concentration for total growth inhibition (TGI) in the assay with HOP-62 NSCLC was found to be 96.1 nM; with OVCAR-8 ovarian it was 163 nM; in the assay on M14 melanoma it was 49.2 nM; with NCI-H23 lung, 150 nM; with OVCAR-3 ovarian it was 289 nM; in the assay with SK-OV-3 ovarian, 157 nM. The concentration for total growth inhibition (TGI) worked out at 212 nM with UO-31 renal, 54.7 nM in the assay on HL-60(TB) leukemia and 508 nM in the assay on NCI/ADR-RES ovarian.
`c1ccc2c(-c3cnn4cc(-c5ccc(N6CCNCC6)cc5)cnc34)ccnc2c1`: the GI50 is 634 nM in the assay on HOP-62 NSCLC; 1450 nM in the assay with OVCAR-8 ovarian; 297 nM with M14 melanoma; 1480 nM with NCI-H23 lung; 1410 nM in the assay with OVCAR-3 ovarian; 1380 nM in the assay on SK-OV-3 ovarian. Besides, the GI50 in the assay on UO-31 renal is 1190 nM; in the assay on HL-60(TB) leukemia, 461 nM; in the assay with SR leukemia, 153 nM; with NCI/ADR-RES ovarian, 1720 nM. Besides, the TGI in the assay on HOP-62 NSCLC is 1240 nM; with OVCAR-8 ovarian, 3050 nM; in the assay with M14 melanoma, 962 nM; in the assay on NCI-H23 lung it was 3050 nM; in the assay on OVCAR-3 ovarian it was 2720 nM; with SK-OV-3 ovarian it was 2710 nM. In addition, the TGI in the assay with UO-31 renal worked out at 2430 nM; in the assay with HL-60(TB) leukemia, 969 nM; in the assay with SR leukemia it was 562 nM; in the assay with NCI/ADR-RES ovarian it was 3420 nM.
In the case of `Cc1[nH]c(=O)nc(N/N=C/c2ccc(Cl)cc2)c1C(=O)Nc1ccc(Cl)cc1`, the TGI in the assay on HOP-62 NSCLC is 26000 nM; in the assay with OVCAR-8 ovarian, 37500 nM; in the assay on M14 melanoma it was 40300 nM; in the assay on NCI-H23 lung, above 93100 nM; in the assay on OVCAR-3 ovarian, 35600 nM; in the assay with SK-OV-3 ovarian, 57900 nM. Moreover, the TGI in the assay with UO-31 renal, in the assay with HL-60(TB) leukemia, with SR leukemia and with NCI/ADR-RES ovarian was above 100000 nM each time.
For the molecule `Cc1cccc2c(N=Nc3ccccc3[N+](=O)[O-])c(O)[nH]c12`, the TGI in the assay with HOP-62 NSCLC is 21800 nM; in the assay on OVCAR-8 ovarian it was above 38200 nM; in the assay on M14 melanoma it was above 100000 nM; with NCI-H23 lung, 23400 nM; in the assay on OVCAR-3 ovarian, 30000 nM; in the assay on SK-OV-3 ovarian, 21800 nM. The TGI is 22500 nM with UO-31 renal, above 100000 nM in the assay on HL-60(TB) leukemia, 38700 nM with SR leukemia and above 31400 nM with NCI/ADR-RES ovarian.
For `CNC12C3C4C1C1C2C3C41C(=O)N[C@H](C(=O)N(C)[C@H](C[C@@H](OC(C)=O)c1nc(C(=O)N[C@@H](Cc2ccccc2)C[C@H](C)C(=O)OC)cs1)C(C)C)C1CC1` (some centres undefined), the GI50 in the assay with HOP-62 NSCLC is 501 nM; with OVCAR-8 ovarian, 523 nM; in the assay on M14 melanoma, 294 nM; in the assay with NCI-H23 lung, 511 nM; in the assay with OVCAR-3 ovarian, 47.2 nM; with SK-OV-3 ovarian, 714 nM. In addition, the GI50 with UO-31 renal is 2250 nM; with HL-60(TB) leukemia, 40.3 nM; with SR leukemia it was 17.9 nM; with NCI/ADR-RES ovarian, above 15000 nM. The TGI is above 15000 nM with HOP-62 NSCLC; above 15000 nM in the assay with OVCAR-8 ovarian; above 15000 nM in the assay on NCI-H23 lung; 372 nM with OVCAR-3 ovarian; above 15000 nM with SK-OV-3 ovarian; above 15000 nM in the assay with UO-31 renal. For the same molecule, the values for the TGI in the assay with HL-60(TB) leukemia, with SR leukemia and with NCI/ADR-RES ovarian were 135 nM, above 7820 nM and above 15000 nM, respectively.
For the molecule `CCOC(=O)Nc1ccc(C(=O)/C=C/c2ccccc2)cc1`, the GI50 with HOP-62 NSCLC was 20400 nM; with OVCAR-8 ovarian it was 33500 nM; with M14 melanoma, 19100 nM; in the assay on NCI-H23 lung it was 23700 nM; with OVCAR-3 ovarian, 18900 nM; with SK-OV-3 ovarian, 26300 nM. Also, the GI50 with UO-31 renal was 26900 nM; in the assay on HL-60(TB) leukemia, 31400 nM; in the assay with SR leukemia, 3680 nM; with NCI/ADR-RES ovarian, 24200 nM. For the same molecule, the TGI with HOP-62 NSCLC is 47300 nM; in the assay on OVCAR-8 ovarian it was above 100000 nM; in the assay on M14 melanoma it was 44300 nM; with NCI-H23 lung, 61100 nM; in the assay on OVCAR-3 ovarian, 75300 nM; in the assay with SK-OV-3 ovarian, 77500 nM. The TGI is above 100000 nM with UO-31 renal, above 100000 nM in the assay on HL-60(TB) leukemia, above 100000 nM with SR leukemia and 65800 nM in the assay with NCI/ADR-RES ovarian.
Turning to `CNC(=O)/C(=C/c1ccc(OC)cc1)c1cc(OC)c(OC)c(OC)c1`, the TGI is above 100000 nM with HOP-62 NSCLC; 55300 nM in the assay on OVCAR-8 ovarian; above 34600 nM with M14 melanoma; 32600 nM in the assay with NCI-H23 lung; 2500 nM with OVCAR-3 ovarian; 29000 nM with SK-OV-3 ovarian. Also, the TGI was above 86000 nM in the assay on UO-31 renal, 8010 nM in the assay on HL-60(TB) leukemia, above 31100 nM in the assay with SR leukemia and above 100000 nM in the assay on NCI/ADR-RES ovarian.
On to `O=C1c2ccccc2C(=O)c2sc(Nc3ccc(Cl)cc3)nc21`, for which the TGI in the assay on HOP-62 NSCLC came out at 9260 nM; with OVCAR-8 ovarian, 4490 nM; with M14 melanoma it was 3960 nM; in the assay on NCI-H23 lung, 2810 nM; in the assay with OVCAR-3 ovarian it was 2740 nM; in the assay with SK-OV-3 ovarian it was 30400 nM. For the same molecule, the TGI was 6350 nM with UO-31 renal, 1050 nM with HL-60(TB) leukemia, 5840 nM in the assay on SR leukemia and 5520 nM with NCI/ADR-RES ovarian. Moreover, in the assay on NCI/ADR-RES ovarian, the GI50 was 2100 nM.
Turning to `COc1ccc2c(c1)C(=O)c1c-2n(CCCN=[N+]=[N-])c(=O)c2cc(N)ccc12`, the GI50 in the assay with HOP-62 NSCLC, with OVCAR-8 ovarian, in the assay on M14 melanoma, in the assay with NCI-H23 lung, with OVCAR-3 ovarian and with SK-OV-3 ovarian was above 100000 nM each time. The GI50 in the assay with UO-31 renal is above 100000 nM; in the assay on HL-60(TB) leukemia, above 100000 nM; in the assay on SR leukemia, 89600 nM; in the assay on NCI/ADR-RES ovarian it was above 100000 nM. For the same molecule, the TGI with HOP-62 NSCLC, with OVCAR-8 ovarian, in the assay with M14 melanoma, with NCI-H23 lung, in the assay on OVCAR-3 ovarian and in the assay on SK-OV-3 ovarian was above 100000 nM each time. The TGI in the assay on UO-31 renal, with HL-60(TB) leukemia, with SR leukemia and with NCI/ADR-RES ovarian was above 100000 nM throughout.
For `CC(=O)OC1CC2(O)C(CCC3(C)C(c4ccc(=O)oc4)CCC32O)C2(C)CCC(OC3OC(CO)C(O)C(O)C3O)C=C12` (centres undefined), the GI50 in the assay on HOP-62 NSCLC is 20.1 nM; in the assay with OVCAR-8 ovarian, 29.4 nM; in the assay with M14 melanoma it was 35.6 nM; in the assay with NCI-H23 lung, 11.4 nM; in the assay on OVCAR-3 ovarian, 28.2 nM; in the assay on SK-OV-3 ovarian it was 44.7 nM. In addition, the GI50 in the assay with UO-31 renal is 18.2 nM; in the assay on HL-60(TB) leukemia it was 23.2 nM; in the assay on SR leukemia, 15 nM; in the assay with NCI/ADR-RES ovarian it was 17.2 nM. The TGI in the assay on HOP-62 NSCLC was 144 nM; in the assay with OVCAR-8 ovarian it was 126 nM; with M14 melanoma, 129 nM; with NCI-H23 lung it was 53.9 nM; in the assay on OVCAR-3 ovarian, 94.9 nM; in the assay on SK-OV-3 ovarian it was 717 nM. In addition, the TGI in the assay on UO-31 renal was 46.6 nM; in the assay with HL-60(TB) leukemia, 57.9 nM; in the assay on SR leukemia, 54.1 nM; in the assay with NCI/ADR-RES ovarian, 54.1 nM.
For `O=C(NCCNC(=O)c1ccc(F)cc1)Nc1ccc(-n2cc(-c3ccncc3)c(-c3ccc(Cl)c(O)c3)n2)cc1`, the GI50 with HOP-62 NSCLC is 697 nM; in the assay with OVCAR-8 ovarian it was 491 nM; in the assay with M14 melanoma, 288 nM; in the assay with NCI-H23 lung it was 587 nM; in the assay on OVCAR-3 ovarian it was 326 nM; with SK-OV-3 ovarian it was 746 nM. In addition, the GI50 in the assay with UO-31 renal is 2400 nM; with HL-60(TB) leukemia, 273 nM; in the assay with SR leukemia it was 299 nM; in the assay with NCI/ADR-RES ovarian, above 100000 nM. The TGI is 23100 nM with HOP-62 NSCLC; above 100000 nM with OVCAR-8 ovarian; 1250 nM in the assay with M14 melanoma; 7770 nM in the assay on NCI-H23 lung; 1200 nM with OVCAR-3 ovarian; 48500 nM with SK-OV-3 ovarian. The TGI is above 100000 nM in the assay with UO-31 renal, 848 nM in the assay with HL-60(TB) leukemia, 2620 nM in the assay on SR leukemia and above 100000 nM in the assay on NCI/ADR-RES ovarian.
As for `Cc1cc(S(=O)(=O)Nc2nc3ccccc3[nH]2)c(SCc2ccccc2)cc1Cl`, the GI50 in the assay with HOP-62 NSCLC was 22700 nM; in the assay with OVCAR-8 ovarian, 37500 nM; with M14 melanoma, above 100000 nM; with NCI-H23 lung, 54900 nM; in the assay on OVCAR-3 ovarian it was 14200 nM; with SK-OV-3 ovarian, 70300 nM. The GI50 was above 100000 nM in the assay with UO-31 renal, above 100000 nM with HL-60(TB) leukemia, 26100 nM in the assay on SR leukemia and above 100000 nM in the assay on NCI/ADR-RES ovarian. The TGI in the assay with HOP-62 NSCLC is above 100000 nM; in the assay with OVCAR-8 ovarian it was above 100000 nM; in the assay with M14 melanoma it was above 100000 nM; in the assay with NCI-H23 lung, above 100000 nM; in the assay on OVCAR-3 ovarian it was 58400 nM; in the assay with SK-OV-3 ovarian it was above 100000 nM. Besides, the TGI in the assay with UO-31 renal, with HL-60(TB) leukemia, in the assay on SR leukemia and in the assay on NCI/ADR-RES ovarian was above 100000 nM throughout.

In general, GI50 refers to the concentration giving 50% growth inhibition. In general, TGI refers to the concentration giving total growth inhibition. High values mean less potent growth arrest, low ones more potent growth arrest.
